Data published in patent US4452782A, “Pentadecapeptide” (Hoffmann-La Roche Inc., priority 1979, dated 1984).

Experiments:
Ps. aeruginosa = test: Protective activity against lethal infection in mice immunosuppressed with 5-fluorouracil; type: in vivo; conditions: 5-fluorouracil 25 mg/kg/day × 10 i.p. alone; 4 × 10^4 i.v.
Protocol: (§1) The effect was further extended against microbial infections in mice immunosuppressed by treatment of a cytostatic. Mice pretreated daily for 10 times with 5-fluorouracil (25 mg/kg/day, i.p.) were infected by either Ps. aeruginosa or C. albicans and the survivals were recorded on day 15.
(§2) C. albicans and Ps. aeruginosa were infected intravenously with 1 ×

C. albicans = test: as above; type: in vivo; conditions: 5-fluorouracil 25 mg/kg/day × 10 i.p. alone; 1 × 10^5 i.v.
Protocol: as §1, §2

Lewis lung carcinoma [1] = test: Survival of mice with Lewis lung carcinoma in combination with cyclophosphamide and surgery (Table 8); type: in vivo; conditions: cyclophosphamide 50 mg/kg i.p. × 1 alone
Protocol: (§3) Lewis lung carcinoma (1×10^6) was implanted into footpad and at day 10 the advanced tumor was excised by amputation of the leg with the tumor developed. Then the mice were treated with cyclophosphamide (50 mg/kg, i.p.) 24 hrs later and at day 27 the dry weight of the tumor metastasized to lung was measured.
On the other hand, the effect of the peptide on survival of the mice, which were amputated the advanced tumor and treated with cyclophosphamide, was examined. The experimental conditions were identical to the above experiment except that the advanced tumor was excised at day 12 and the mice were treated with cyclophosphamide at day 13.

Lewis lung carcinoma [2] = test: Suppression of growth of Lewis lung carcinoma metastasized to lung after amputation and cyclophosphamide (Table 7); type: in vivo, mice; conditions: cyclophosphamide 50 mg/kg i.p. × 1 alone after amputation; day 27
Protocol: The major problem in the treatment of cancer patient after surgical elimination of tumor is the prevention of metastasis of the tumor.
as §3

In the case of `O=c1[nH]cc(F)c(=O)[nH]1` [5-fluorouracil], the “Suppressive activity against lethal infection (survivals at day 15)” value (Ps. aeruginosa) is reported as 2/7 and the “Suppressive activity against lethal infection (survivals at day 15)” value (C. albicans) is reported as 5/35.
`O=P1(N(CCCl)CCCl)NCCCO1` (centres unmarked) [Cyclophosphamide] was tested, and the “Survivals at day 100” value (Lewis lung carcinoma [1]) was 2/12, the Mean survival days (Lewis lung carcinoma [1]; days after tumor implantation) was 32.6 ± 3.2 days and the “dry weight of the tumor metastasized (mg ± S.D.)” value (Lewis lung carcinoma [2]) was 45.9 ± 30.6 mg.
